The text below walks through data of ChEMBL document CHEMBL1909046, “DrugMatrix in vitro pharmacology data”.

Each structure is given as a SMILES string.

Mitogen-activated protein kinase 3, sequence (P27361 whole entry): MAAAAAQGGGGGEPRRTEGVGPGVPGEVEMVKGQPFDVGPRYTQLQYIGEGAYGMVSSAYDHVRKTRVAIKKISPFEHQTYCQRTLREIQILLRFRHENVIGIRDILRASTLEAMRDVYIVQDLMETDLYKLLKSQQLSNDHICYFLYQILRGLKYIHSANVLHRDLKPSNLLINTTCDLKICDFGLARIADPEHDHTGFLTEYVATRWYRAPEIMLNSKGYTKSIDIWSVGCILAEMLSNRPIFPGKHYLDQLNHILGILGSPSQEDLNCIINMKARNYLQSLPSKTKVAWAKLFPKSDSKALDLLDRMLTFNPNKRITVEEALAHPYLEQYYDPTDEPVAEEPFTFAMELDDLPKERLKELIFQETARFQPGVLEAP
Nitric oxide synthase 1, sequence (P29476 whole entry): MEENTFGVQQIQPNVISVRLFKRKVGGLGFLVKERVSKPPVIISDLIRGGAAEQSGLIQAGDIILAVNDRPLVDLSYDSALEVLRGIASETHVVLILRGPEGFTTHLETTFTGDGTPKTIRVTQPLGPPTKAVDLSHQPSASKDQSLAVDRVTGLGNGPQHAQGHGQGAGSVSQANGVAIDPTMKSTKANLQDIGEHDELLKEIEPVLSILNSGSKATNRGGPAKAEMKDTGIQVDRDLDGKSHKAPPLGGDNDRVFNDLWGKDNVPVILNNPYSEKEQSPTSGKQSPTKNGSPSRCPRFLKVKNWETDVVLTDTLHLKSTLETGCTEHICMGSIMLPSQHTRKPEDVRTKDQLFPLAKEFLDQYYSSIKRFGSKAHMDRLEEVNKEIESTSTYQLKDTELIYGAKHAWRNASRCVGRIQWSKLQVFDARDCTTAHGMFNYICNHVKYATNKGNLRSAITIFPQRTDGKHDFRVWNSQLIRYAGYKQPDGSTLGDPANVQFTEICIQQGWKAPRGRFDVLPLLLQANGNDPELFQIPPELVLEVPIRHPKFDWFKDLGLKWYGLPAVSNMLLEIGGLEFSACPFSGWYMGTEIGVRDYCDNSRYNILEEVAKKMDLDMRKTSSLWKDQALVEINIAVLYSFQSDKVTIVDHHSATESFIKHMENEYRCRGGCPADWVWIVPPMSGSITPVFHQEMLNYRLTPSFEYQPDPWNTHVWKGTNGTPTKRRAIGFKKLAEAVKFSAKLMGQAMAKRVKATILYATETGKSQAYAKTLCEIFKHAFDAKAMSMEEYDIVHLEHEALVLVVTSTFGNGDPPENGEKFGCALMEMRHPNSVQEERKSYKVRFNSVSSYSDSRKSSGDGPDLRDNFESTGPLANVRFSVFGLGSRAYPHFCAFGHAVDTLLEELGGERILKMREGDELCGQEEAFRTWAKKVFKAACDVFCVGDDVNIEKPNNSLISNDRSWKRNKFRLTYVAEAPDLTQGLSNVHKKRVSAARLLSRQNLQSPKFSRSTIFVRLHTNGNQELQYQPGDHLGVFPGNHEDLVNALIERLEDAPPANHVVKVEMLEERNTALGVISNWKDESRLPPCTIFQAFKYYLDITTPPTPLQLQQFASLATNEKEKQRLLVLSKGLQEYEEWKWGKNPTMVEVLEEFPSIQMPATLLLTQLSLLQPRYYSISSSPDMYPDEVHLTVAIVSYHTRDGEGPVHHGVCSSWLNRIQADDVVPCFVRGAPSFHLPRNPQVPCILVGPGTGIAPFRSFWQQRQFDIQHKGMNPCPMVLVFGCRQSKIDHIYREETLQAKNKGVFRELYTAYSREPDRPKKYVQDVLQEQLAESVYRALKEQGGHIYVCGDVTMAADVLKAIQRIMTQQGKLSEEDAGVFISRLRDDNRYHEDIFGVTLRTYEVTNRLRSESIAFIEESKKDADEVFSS
Cannabinoid receptor 1, sequence (P21554 whole entry): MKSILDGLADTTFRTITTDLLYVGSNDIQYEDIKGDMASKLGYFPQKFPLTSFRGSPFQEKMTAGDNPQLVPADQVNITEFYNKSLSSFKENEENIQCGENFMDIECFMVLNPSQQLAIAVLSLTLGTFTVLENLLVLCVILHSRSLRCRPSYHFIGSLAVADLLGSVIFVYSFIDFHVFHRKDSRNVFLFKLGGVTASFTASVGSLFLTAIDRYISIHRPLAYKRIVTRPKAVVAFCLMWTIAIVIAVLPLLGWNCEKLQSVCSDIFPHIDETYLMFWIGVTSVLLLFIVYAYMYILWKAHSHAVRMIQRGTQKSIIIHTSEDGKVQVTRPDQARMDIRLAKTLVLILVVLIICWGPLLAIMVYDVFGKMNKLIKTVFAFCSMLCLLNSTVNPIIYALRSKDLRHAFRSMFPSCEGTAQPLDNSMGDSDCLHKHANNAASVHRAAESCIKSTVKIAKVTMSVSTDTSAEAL

Tested on in one test: not listed separately
Description: DRUGMATRIX: GABAA, Chloride Channel, TBOB radioligand binding (ligand: [3H] TBOB). The class given is cell membranes, Rattus norvegicus, Wistar, Cerebral cortex, Membrane. The conditions noted are these: Not Active = under 50% inhibition at 10 µM.
Turning to `Nc1nnc(-c2cccc(Cl)c2Cl)c(N)n1` [LAMOTRIGINE], the IC50 entry is recorded as “Not Active” and the Ki result is on record as “Not Active”.

Consider `NNC(=O)c1ccncc1` [ISONIAZID], for which the IC50 result is on record as “Not Active” and the Ki entry is recorded as “Not Active”.

With `COC(=O)C1=C(C)NC(C)=C(C(=O)OC)C1c1ccccc1[N+](=O)[O-]` [NIFEDIPINE], the IC50 entry is listed as “Not Active” and the Ki entry was “Not Active”.

Take `NC(=O)c1ccccc1O` [SALICYLAMIDE]: the IC50 result is “Not Active” and the Ki result is “Not Active”.

The target in a further test is Acetylcholinesterase (Homo sapiens, UniProt P22303). Briefly: DRUGMATRIX: Acetylcholinesterase enzyme inhibition (substrate: acetylthiocholine). It counts as cell-based, HEK293. To be noted: hek293; Not Active = under 50% inhibition at 10 µM.
Acetylcholinesterase, sequence (P22303 whole entry): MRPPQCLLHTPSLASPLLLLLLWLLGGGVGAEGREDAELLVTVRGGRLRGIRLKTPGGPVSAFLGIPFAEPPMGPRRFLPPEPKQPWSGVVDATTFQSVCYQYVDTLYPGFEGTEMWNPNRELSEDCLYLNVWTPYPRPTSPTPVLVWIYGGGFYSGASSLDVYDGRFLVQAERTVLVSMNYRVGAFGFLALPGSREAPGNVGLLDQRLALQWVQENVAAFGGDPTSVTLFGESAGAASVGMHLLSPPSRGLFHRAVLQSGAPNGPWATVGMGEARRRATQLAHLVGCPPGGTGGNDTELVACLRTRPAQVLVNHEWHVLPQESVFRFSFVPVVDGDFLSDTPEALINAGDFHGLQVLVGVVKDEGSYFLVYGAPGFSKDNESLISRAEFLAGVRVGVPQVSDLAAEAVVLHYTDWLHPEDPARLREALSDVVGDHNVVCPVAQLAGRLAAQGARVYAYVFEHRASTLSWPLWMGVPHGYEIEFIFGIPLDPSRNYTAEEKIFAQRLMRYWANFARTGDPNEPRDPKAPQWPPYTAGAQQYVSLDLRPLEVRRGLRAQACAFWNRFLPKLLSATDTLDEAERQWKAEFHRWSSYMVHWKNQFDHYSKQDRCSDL
As for `Nc1nnc(-c2cccc(Cl)c2Cl)c(N)n1` [LAMOTRIGINE], the IC50 entry is “Not Active”.

Regarding `NNC(=O)c1ccncc1` [ISONIAZID], the IC50 entry is “Not Active”.

Regarding `COC(=O)C1=C(C)NC(C)=C(C(=O)OC)C1c1ccccc1[N+](=O)[O-]` [NIFEDIPINE], the IC50 result is given as “Not Active”.

With `NC(=O)c1ccccc1O` [SALICYLAMIDE], the IC50 result is on record as “Not Active”.

Tested on in another test: not listed separately
Briefly: DRUGMATRIX: Potassium Channel [KATP] radioligand binding (ligand: [3H] Glyburide). It counts as cell membranes, Membrane. To be noted: hit-t15; Not Active = under 50% inhibition at 10 µM.
As to `Nc1nnc(-c2cccc(Cl)c2Cl)c(N)n1` [LAMOTRIGINE], the IC50 result is given as “Not Active” and the Ki result is given as “Not Active”.

As for `NNC(=O)c1ccncc1` [ISONIAZID], the IC50 entry is “Not Active” and the Ki result is “Not Active”.

For `COC(=O)C1=C(C)NC(C)=C(C(=O)OC)C1c1ccccc1[N+](=O)[O-]` [NIFEDIPINE], the IC50 entry is listed as “Not Active” and the Ki entry is “Not Active”.

As for `NC(=O)c1ccccc1O` [SALICYLAMIDE], the IC50 entry is “Not Active” and the Ki entry is listed as “Not Active”.

In the next test the target is Protein phosphatase 3 catalytic subunit alpha (Homo sapiens, UniProt Q08209). Also on record: species or system Escherichia coli.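 Note: inhibition of calcineurin (PP2B) enzyme activity, measured with DiFMUP as the substrate; in other assays of this panel Not Active means under 50% inhibition at 10 µM.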
Conditions: not given
Turning to `Nc1nnc(-c2cccc(Cl)c2Cl)c(N)n1` [LAMOTRIGINE], the IC50 entry was “Not Active”.

On to `NNC(=O)c1ccncc1` [ISONIAZID], for which the IC50 entry is listed as “Not Active”.

For the molecule `COC(=O)C1=C(C)NC(C)=C(C(=O)OC)C1c1ccccc1[N+](=O)[O-]` [NIFEDIPINE], the IC50 result was “Not Active”.

As for `NC(=O)c1ccccc1O` [SALICYLAMIDE], the IC50 result is “Not Active”.

Another test addresses Mitogen-activated protein kinase 3 (Homo sapiens, UniProt P27361). Description: DRUGMATRIX: Protein Serine/Threonine Kinase, ERK1 enzyme inhibition (substrate: Myelin Basic Protein). To be noted: Not Active = under 50% inhibition at 10 µM. Details: species or system Escherichia coli.
In the case of `Nc1nnc(-c2cccc(Cl)c2Cl)c(N)n1` [LAMOTRIGINE], the IC50 result is “Not Active”.

In the case of `NNC(=O)c1ccncc1` [ISONIAZID], the IC50 result is given as “Not Active”.

Regarding `COC(=O)C1=C(C)NC(C)=C(C(=O)OC)C1c1ccccc1[N+](=O)[O-]` [NIFEDIPINE], the IC50 result is “Not Active”.

Regarding `NC(=O)c1ccccc1O` [SALICYLAMIDE], the IC50 entry is “Not Active”.

The target in a further test is T1, B2 bradykinin receptor (Homo sapiens, UniProt P30411). Note: in other assays of this panel Not Active means under 50% inhibition at 10 µM.
T1 sequence (P30411 whole entry): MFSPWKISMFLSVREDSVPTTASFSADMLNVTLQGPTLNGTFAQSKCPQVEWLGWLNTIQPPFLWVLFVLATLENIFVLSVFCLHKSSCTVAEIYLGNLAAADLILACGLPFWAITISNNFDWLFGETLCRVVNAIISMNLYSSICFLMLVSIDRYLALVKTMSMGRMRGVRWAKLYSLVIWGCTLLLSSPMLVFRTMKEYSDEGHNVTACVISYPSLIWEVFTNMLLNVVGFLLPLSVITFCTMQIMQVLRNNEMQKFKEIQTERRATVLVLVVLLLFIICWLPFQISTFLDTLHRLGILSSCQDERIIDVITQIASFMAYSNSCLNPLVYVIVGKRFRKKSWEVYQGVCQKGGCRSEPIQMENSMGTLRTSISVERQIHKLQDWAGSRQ
The class given is cell membranes, Membrane. The conditions noted are these: chem-1.
As to `Nc1nnc(-c2cccc(Cl)c2Cl)c(N)n1` [LAMOTRIGINE], the IC50 entry was “Not Active”.

`NNC(=O)c1ccncc1` [ISONIAZID]: the IC50 entry is “Not Active”.

For the molecule `COC(=O)C1=C(C)NC(C)=C(C(=O)OC)C1c1ccccc1[N+](=O)[O-]` [NIFEDIPINE], the IC50 entry was “Not Active”.

Turning to `NC(=O)c1ccccc1O` [SALICYLAMIDE], the IC50 result is reported as “Not Active”.

Tested on in the next test: not listed separately
Briefly: DRUGMATRIX: Platelet-Derived Growth Factor (PDGF) radioligand binding (ligand: [125I] PDGF). The class given is cell-based. The conditions noted are these: nih3t3; Not Active = under 50% inhibition at 10 µM.
Consider `Nc1nnc(-c2cccc(Cl)c2Cl)c(N)n1` [LAMOTRIGINE], for which the IC50 result was “Not Active” and the Ki entry is listed as “Not Active”.

Regarding `NNC(=O)c1ccncc1` [ISONIAZID], the IC50 entry was “Not Active” and the Ki result was “Not Active”.

As for `COC(=O)C1=C(C)NC(C)=C(C(=O)OC)C1c1ccccc1[N+](=O)[O-]` [NIFEDIPINE], the IC50 entry is listed as “Not Active” and the Ki entry is given as “Not Active”.

In the case of `NC(=O)c1ccccc1O` [SALICYLAMIDE], the IC50 result is recorded as “Not Active” and the Ki result is “Not Active”.

The next test addresses T2, Substance-K receptor (Homo sapiens, UniProt P21452).
T2 sequence (P21452 whole entry): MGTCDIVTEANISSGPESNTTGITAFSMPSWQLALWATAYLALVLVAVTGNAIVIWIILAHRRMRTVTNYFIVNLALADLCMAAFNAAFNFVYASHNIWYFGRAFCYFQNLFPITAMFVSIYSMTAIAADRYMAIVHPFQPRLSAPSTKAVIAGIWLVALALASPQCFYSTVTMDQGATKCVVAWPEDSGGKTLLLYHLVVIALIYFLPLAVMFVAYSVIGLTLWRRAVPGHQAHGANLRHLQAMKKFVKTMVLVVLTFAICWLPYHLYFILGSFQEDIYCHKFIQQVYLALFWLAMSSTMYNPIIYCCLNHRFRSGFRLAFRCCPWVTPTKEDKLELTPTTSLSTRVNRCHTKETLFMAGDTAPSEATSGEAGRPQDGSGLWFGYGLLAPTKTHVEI
It counts as cell membranes, CHO, Membrane. To be noted: cho.
`Nc1nnc(-c2cccc(Cl)c2Cl)c(N)n1` [LAMOTRIGINE]: the IC50 result is listed as “Not Active”.

As for `NNC(=O)c1ccncc1` [ISONIAZID], the IC50 result was “Not Active”.

As to `COC(=O)C1=C(C)NC(C)=C(C(=O)OC)C1c1ccccc1[N+](=O)[O-]` [NIFEDIPINE], the IC50 entry is “Not Active”.

As for `NC(=O)c1ccccc1O` [SALICYLAMIDE], the IC50 result is listed as “Not Active”.

In the next test the target is T3, Alpha-2C adrenergic receptor (Homo sapiens, UniProt P18825).
T3 sequence (P18825 whole entry): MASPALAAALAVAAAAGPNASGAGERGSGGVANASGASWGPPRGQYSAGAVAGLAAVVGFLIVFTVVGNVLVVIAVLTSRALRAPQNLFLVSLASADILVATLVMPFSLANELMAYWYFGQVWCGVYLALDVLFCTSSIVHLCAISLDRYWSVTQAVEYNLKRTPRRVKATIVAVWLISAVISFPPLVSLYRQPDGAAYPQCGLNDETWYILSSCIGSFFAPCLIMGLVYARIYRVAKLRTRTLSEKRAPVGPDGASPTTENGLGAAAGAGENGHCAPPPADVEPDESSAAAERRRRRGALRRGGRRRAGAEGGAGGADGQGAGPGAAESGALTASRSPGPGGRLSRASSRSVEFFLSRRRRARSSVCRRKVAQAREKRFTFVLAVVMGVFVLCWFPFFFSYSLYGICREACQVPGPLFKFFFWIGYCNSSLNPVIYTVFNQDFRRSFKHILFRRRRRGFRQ
Description: DRUGMATRIX: Adrenergic Alpha-2C radioligand binding (ligand: [3H] MK-912). It counts as cell membranes, Sf9, Membrane. The conditions noted are these: sf9.
Take `Nc1nnc(-c2cccc(Cl)c2Cl)c(N)n1` [LAMOTRIGINE]: the IC50 entry was “Not Active”.

`NNC(=O)c1ccncc1` [ISONIAZID]: the IC50 entry is given as “Not Active”.

On to `COC(=O)C1=C(C)NC(C)=C(C(=O)OC)C1c1ccccc1[N+](=O)[O-]` [NIFEDIPINE], for which the IC50 entry is “Not Active”.

As for `NC(=O)c1ccccc1O` [SALICYLAMIDE], the IC50 entry is “Not Active”.

The next test addresses Nitric oxide synthase 1 (Rattus norvegicus, UniProt P29476). The class given is tissue-based, Cerebellum.
Conditions: not given
Turning to `Nc1nnc(-c2cccc(Cl)c2Cl)c(N)n1` [LAMOTRIGINE], the IC50 result is listed as “Not Active”.

On to `NNC(=O)c1ccncc1` [ISONIAZID], for which the IC50 entry is listed as “Not Active”.

With `COC(=O)C1=C(C)NC(C)=C(C(=O)OC)C1c1ccccc1[N+](=O)[O-]` [NIFEDIPINE], the IC50 entry was “Not Active”.

Regarding `NC(=O)c1ccccc1O` [SALICYLAMIDE], the IC50 result is reported as “Not Active”.

The target in a further test is Adenosine receptor A2a (Homo sapiens, UniProt P29274). Description: DRUGMATRIX: Adenosine A2A radioligand binding (ligand: […]). It counts as cell membranes, HEK293, Membrane. The conditions noted are these: hek293; Not Active = under 50% inhibition at 10 µM.
Adenosine receptor A2a, sequence (P29274 whole entry): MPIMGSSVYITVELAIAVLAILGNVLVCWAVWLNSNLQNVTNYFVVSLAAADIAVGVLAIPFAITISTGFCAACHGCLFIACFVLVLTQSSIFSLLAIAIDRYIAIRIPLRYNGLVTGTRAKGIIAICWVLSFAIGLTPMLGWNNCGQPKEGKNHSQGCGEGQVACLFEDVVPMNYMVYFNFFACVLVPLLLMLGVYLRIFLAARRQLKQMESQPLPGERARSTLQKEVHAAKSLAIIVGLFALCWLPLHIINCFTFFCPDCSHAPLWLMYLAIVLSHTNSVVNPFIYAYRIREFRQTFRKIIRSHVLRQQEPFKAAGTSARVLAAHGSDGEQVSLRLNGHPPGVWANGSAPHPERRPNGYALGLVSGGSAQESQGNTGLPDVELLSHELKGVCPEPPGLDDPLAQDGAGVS
Regarding `Nc1nnc(-c2cccc(Cl)c2Cl)c(N)n1` [LAMOTRIGINE], the IC50 result is recorded as “Not Active”.

As to `NNC(=O)c1ccncc1` [ISONIAZID], the IC50 entry was “Not Active”.

With `COC(=O)C1=C(C)NC(C)=C(C(=O)OC)C1c1ccccc1[N+](=O)[O-]` [NIFEDIPINE], the IC50 result is listed as “Not Active”.

Consider `NC(=O)c1ccccc1O` [SALICYLAMIDE], for which the IC50 result is “Not Active”.

The target of another test is cGMP-specific 3',5'-cyclic phosphodiesterase (Homo sapiens, UniProt O76074). Description: DRUGMATRIX: Phosphodiesterase PDE5 enzyme inhibition (substrate: [3H]cGMP + cGMP). The conditions noted are these: platelet; Not Active = under 50% inhibition at 10 µM. It counts as tissue-based, Platelet.
For `Nc1nnc(-c2cccc(Cl)c2Cl)c(N)n1` [LAMOTRIGINE], the IC50 entry is listed as “Not Active”.

For `NNC(=O)c1ccncc1` [ISONIAZID], the IC50 entry was “Not Active”.

Take `COC(=O)C1=C(C)NC(C)=C(C(=O)OC)C1c1ccccc1[N+](=O)[O-]` [NIFEDIPINE]: the IC50 result is given as “Not Active”.

Consider `NC(=O)c1ccccc1O` [SALICYLAMIDE], for which the IC50 result is “Not Active”.

Another test has as its target Cannabinoid receptor 1 (Homo sapiens, UniProt P21554). The class given is cell membranes, Membrane. To be noted: chem-1. Note: in other assays of this panel Not Active means under 50% inhibition at 10 µM.
Regarding `Nc1nnc(-c2cccc(Cl)c2Cl)c(N)n1` [LAMOTRIGINE], the IC50 result is “Not Active”.

Consider `NNC(=O)c1ccncc1` [ISONIAZID], for which the IC50 entry is listed as “Not Active”.

As for `COC(=O)C1=C(C)NC(C)=C(C(=O)OC)C1c1ccccc1[N+](=O)[O-]` [NIFEDIPINE], the IC50 entry is “Not Active”.

As to `NC(=O)c1ccccc1O` [SALICYLAMIDE], the IC50 entry is given as “Not Active”.

A further test concerns the target T4, C-X-C chemokine receptor type 1 (Homo sapiens, UniProt P25024). Note: in other assays of this panel Not Active means under 50% inhibition at 10 µM.
T4 sequence (P25024 whole entry): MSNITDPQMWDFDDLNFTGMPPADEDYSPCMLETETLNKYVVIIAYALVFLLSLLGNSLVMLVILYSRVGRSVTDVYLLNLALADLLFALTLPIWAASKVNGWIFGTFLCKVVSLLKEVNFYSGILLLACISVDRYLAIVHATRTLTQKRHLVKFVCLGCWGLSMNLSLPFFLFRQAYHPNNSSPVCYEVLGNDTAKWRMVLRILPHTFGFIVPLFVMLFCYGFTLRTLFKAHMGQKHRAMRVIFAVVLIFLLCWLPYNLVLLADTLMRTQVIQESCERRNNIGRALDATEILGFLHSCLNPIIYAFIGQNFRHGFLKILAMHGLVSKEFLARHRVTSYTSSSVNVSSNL
Conditions: not given
Consider `Nc1nnc(-c2cccc(Cl)c2Cl)c(N)n1` [LAMOTRIGINE], for which the IC50 result is listed as “Not Active”.

On to `NNC(=O)c1ccncc1` [ISONIAZID], for which the IC50 result was “Not Active”.

Turning to `COC(=O)C1=C(C)NC(C)=C(C(=O)OC)C1c1ccccc1[N+](=O)[O-]` [NIFEDIPINE], the IC50 entry is “Not Active”.

Take `NC(=O)c1ccccc1O` [SALICYLAMIDE]: the IC50 entry is given as “Not Active”.
